Laboratory results taken from patent US20100267825A1, “TREATMENT OF SKIN DAMAGE” (Eukarion, Inc., priority 2009, published 2010).

Tests used:
[1] = In vitro catalase activity (colorimetric peroxidase/ABTS-coupled assay); assay type: biochemical; conditions: relative to C7 (EUK-8) set at 100%, 10 μM compound, 100 μM hydrogen peroxide
Procedure: The catalase activity of SOD/Catalase mimetics used in the process was determined as previously described by Doctrow et al., 2002, J. Med. Chem. 45, 4549-4558. Briefly, catalase activity was measured by incubating the sample compound with hydrogen peroxide and determining the amount of hydrogen peroxide remaining after a period of time using a colorimetric peroxidase-coupled assay method. 10 μM sample compound and 100 μM hydrogen peroxide in 40 mM sodium phosphate pH 7.4 were incubated together at ambient temperature in a multi-well plate. After the desired reaction period had elapsed, 20 μl of peroxidase/ABTS reagent was added (peroxidase/ABTS reagent contained […] of 50 mM Na phosphate, pH 7.4, 1 mg horseradish peroxidase (1310 U/mg) and 1.6 g ABTS). After five minutes, absorbance at 750 nm was determined.
The amount of hydrogen peroxide remaining was calculated based on a standard curve. To compare rates of catalase reaction, the amount of hydrogen peroxide consumed at 20 minutes was determined.
(rate obtained for SOD/Catalase mimetic)/(rate obtained for C7 (EUK-8))×100%

[2] = system: radiation-induced apoptosis; test: Protection against radiation-induced apoptosis / anti-apoptotic activity; assay type: cell-based
Cytotoxicity = assay type: cell-based
[3] = salen-metal complexes, pH 7.4, hydrogen peroxide consumed at 20 minutes
[4] = orally bioavailable metalloporphyrin derivatives, pH 7.4, 20 minutes

Structure (SMILES)	Relative Catalase Rate [1, 3]	also measured
[Cl-].[Mn+3].[O-]c1ccccc1C=NCCN=Cc1ccccc1[O-] [C7 (EUK-8)]	100%	
CC(=O)[O-].[Mn+3].[O-]c1ccccc1C=NCCN=Cc1ccccc1[O-] [C31]	92%	
CC(=O)[O-].COc1cccc(C=NCCN=Cc2cccc(OC)c2[O-])c1[O-].[Mn+3] [C32]	188%	
CC(=O)[O-].COc1ccc(C=NCCN=Cc2ccc(OC)cc2[O-])c([O-])c1.[Mn+3] [C33]	38%	
COc1ccc(C=NCCN=Cc2ccc(OC)cc2[O-])c([O-])c1.[Cl-].[Mn+3] [C34]	46%	
CC(=O)[O-].COc1cc([O-])c(C=NCCN=Cc2c([O-])cc(OC)cc2OC)c(OC)c1.[Mn+3] [C35]	25%	
CC(=O)[O-].[Mn+3].[O-]c1c(F)cccc1C=NCCN=Cc1cccc(F)c1[O-] [C36]	128%	
[Cl-].[Mn+3].[O-]c1c(F)cccc1C=NCCN=Cc1cccc(F)c1[O-] [C37]	117%	
COc1cccc(C=NCCN=Cc2cccc(OC)c2[O-])c1[O-].[Cl-].[Mn+3] [C40 (EUK-134)]	155%	
CC(=O)[O-].COc1cc(Br)c([O-])c(C=Nc2ccccc2N=Cc2cc(OC)cc(Br)c2[O-])c1.[Mn+3] [C76]	427%	
COc1cccc(C=Nc2ccccc2N=Cc2cccc(OC)c2[O-])c1[O-].[Cl-].[Mn+3] [C81]	493%	
CC(=O)[O-].[Mn+3].[O-]c1c2cccc1OCCOCCOCCOc1cccc(c1[O-])C=Nc1ccccc1N=C2 [C82]	345%	
CC(=O)[O-].[Mn+3].[O-]c1ccccc1CNCCNCc1ccccc1[O-] [C83]	42%	
[Cl-].[Mn+3].[O-]c1ccccc1CNCCNCc1ccccc1[O-] [C84]	31%	
CC(=NCCN=C(C)c1ccccc1[O-])c1ccccc1[O-].CC(=O)[O-].[Mn+3] [C85]	31%	
C1=Cc2nc1cc1ccc([n-]1)c(C1CC1)c1nc(cc3ccc([n-]3)c2C2CC2)C=C1.CC(=O)[O-].[Mn+3] [EUK-418, {[{(Porphine-5,15-diyl)bis[cyclopropyl-diyl]}] (2-)-N^21, N^22, N^23, N^24} manganese(III) acetate]		protective effect against radiation-induced apoptosis (in words) [2]: protective effect against radiation-induced apoptosis; Relative Catalase Rate [1, 4]: 70%
C1=Cc2nc1cc1ccc([n-]1)c(Cc1ccccc1)c1nc(cc3ccc([n-]3)c2Cc2ccccc2)C=C1.CC(=O)[O-].[Mn+3] [EUK-423, {[{(Porphine-5,15-diyl)bis[benzyl-diyl]}] (2-)-N^21, N^22, N^23, N^24} manganese(III) acetate]		protective effect against radiation-induced apoptosis (in words) [2]: protective effect against radiation-induced apoptosis; Relative Catalase Rate [1, 4]: 56%
CC(=O)[O-].CCc1c2nc(c(CC)c3ccc([n-]3)c(CC)c3nc(c(CC)c4ccc1[n-]4)C=C3)C=C2.[Mn+3] [EUK-425, (5,10,15,20-Tetraethylporphyrinato) manganese (III) acetate]		Relative Catalase Rate [1, 4]: 84%
CC(=O)[O-].COc1ccc(-c2c3nc(cc4ccc([n-]4)c(-c4ccc(OC)cc4)c4nc(cc5ccc2[n-]5)C=C4)C=C3)cc1.[Mn+3] [EUK-450, {[{(Porphine-5,15-diyl)bis[benzene-1,4 diyl (4-methyl-oxy)]}](2-)-N^21, N^22, N^23, N^24} manganese(III) acetate]		protective effect against radiation-induced apoptosis (in words) [2]: protective effect against radiation-induced apoptosis; Relative Catalase Rate [1, 4]: 84%
C1=Cc2nc1cc1ccc([n-]1)c(C1CCOCC1)c1nc(cc3ccc([n-]3)c2C2CCOCC2)C=C1.[Cl-].[Mn+3] [EUK-451, {[{(Porphine-5,15-diyl)bis[4-Tetrahydropyrano-diyl]}](2-)-N^21, N^22, N^23, N^24} manganese(III) chloride]		cytotoxicity (in words) (Cytotoxicity): low; anti-apoptotic activity (in words) [2]: high; protective effect against radiation-induced apoptosis (in words) [2]: protective effect against radiation-induced apoptosis; Relative Catalase Rate [1, 4]: 140%
C1=Cc2nc1cc1ccc([n-]1)c(C1CCCCC1)c1nc(cc3ccc([n-]3)c2C2CCCCC2)C=C1.[Cl-].[Mn+3] [EUK-452, {[{(Porphine-5,15-diyl)bis[cyclohexyl-diyl]}] (2-)-N^21, N^22, N^23, N^24} manganese(III) chloride]		protective effect against radiation-induced apoptosis (in words) [2]: protective effect against radiation-induced apoptosis; Relative Catalase Rate [1, 4]: 105%
